From ChEMBL document CHEMBL4673288, “Structure-activity relationship of novel acridone derivatives as antiproliferative agents” (Bioorg Med Chem, 2021) come the findings set out here.

The test system of one experiment is HepG2. Kind of experiment: Antiproliferative activity against human HepG2 cells assessed as reduction in cell viability incubated for 48 hrs by MTT assay. It is filed as functional, cell-based. The following applies: HepG2, 48 h. On the technique in general: Tetrazolium assays rely on reduction of a dye to a coloured formazan, in cell work by metabolically active cells.

The next experiment has as its system HeLa. Kind of experiment: Antiproliferative activity against human HeLa cells assessed as reduction in cell viability incubated for 72 hrs by SRB assay. It is filed as functional, cell-based. A general note: Sulforhodamine B stains cellular protein and so reports cell mass.
A further experiment relates to HCT-116. Kind of experiment: Antiproliferative activity against human HCT-116 cells assessed as reduction in cell viability incubated for 72 hrs by SRB assay. It is filed as functional, cell-based. Particulars: HCT-116, 72 h.
For experiment [1], the target named is DNA topoisomerase 2-alpha (Homo sapiens) (UniProt P11388). Put plainly: Inhibition of recombinant human topoisomerase 2 alpha-mediated relaxation of supercoiled pBR322 DNA at 200 uM incubated for 30 mins by ethidium bromide staining based agarose gel electrophoresis method.
A further experiment has as its system SW480. Kind of experiment: Antiproliferative activity against human SW480 cells assessed as reduction in cell viability incubated for 72 hrs by SRB assay. It is filed as functional, cell-based. The following applies: SW480, 72 h.
A further experiment deals with K562. Kind of experiment: Antiproliferative activity against human K562 cells assessed as reduction in cell viability incubated for 48 hrs by MTT assay. It is filed as functional, cell-based. The following applies: K562, 48 h.

Molecules are shown by their SMILES. Active and inactive are the calls of the source. The rule behind the calls is not given here. Bounds are passed on as bounds.

Sequence of DNA topoisomerase 2-alpha (Homo sapiens) (P11388 whole entry): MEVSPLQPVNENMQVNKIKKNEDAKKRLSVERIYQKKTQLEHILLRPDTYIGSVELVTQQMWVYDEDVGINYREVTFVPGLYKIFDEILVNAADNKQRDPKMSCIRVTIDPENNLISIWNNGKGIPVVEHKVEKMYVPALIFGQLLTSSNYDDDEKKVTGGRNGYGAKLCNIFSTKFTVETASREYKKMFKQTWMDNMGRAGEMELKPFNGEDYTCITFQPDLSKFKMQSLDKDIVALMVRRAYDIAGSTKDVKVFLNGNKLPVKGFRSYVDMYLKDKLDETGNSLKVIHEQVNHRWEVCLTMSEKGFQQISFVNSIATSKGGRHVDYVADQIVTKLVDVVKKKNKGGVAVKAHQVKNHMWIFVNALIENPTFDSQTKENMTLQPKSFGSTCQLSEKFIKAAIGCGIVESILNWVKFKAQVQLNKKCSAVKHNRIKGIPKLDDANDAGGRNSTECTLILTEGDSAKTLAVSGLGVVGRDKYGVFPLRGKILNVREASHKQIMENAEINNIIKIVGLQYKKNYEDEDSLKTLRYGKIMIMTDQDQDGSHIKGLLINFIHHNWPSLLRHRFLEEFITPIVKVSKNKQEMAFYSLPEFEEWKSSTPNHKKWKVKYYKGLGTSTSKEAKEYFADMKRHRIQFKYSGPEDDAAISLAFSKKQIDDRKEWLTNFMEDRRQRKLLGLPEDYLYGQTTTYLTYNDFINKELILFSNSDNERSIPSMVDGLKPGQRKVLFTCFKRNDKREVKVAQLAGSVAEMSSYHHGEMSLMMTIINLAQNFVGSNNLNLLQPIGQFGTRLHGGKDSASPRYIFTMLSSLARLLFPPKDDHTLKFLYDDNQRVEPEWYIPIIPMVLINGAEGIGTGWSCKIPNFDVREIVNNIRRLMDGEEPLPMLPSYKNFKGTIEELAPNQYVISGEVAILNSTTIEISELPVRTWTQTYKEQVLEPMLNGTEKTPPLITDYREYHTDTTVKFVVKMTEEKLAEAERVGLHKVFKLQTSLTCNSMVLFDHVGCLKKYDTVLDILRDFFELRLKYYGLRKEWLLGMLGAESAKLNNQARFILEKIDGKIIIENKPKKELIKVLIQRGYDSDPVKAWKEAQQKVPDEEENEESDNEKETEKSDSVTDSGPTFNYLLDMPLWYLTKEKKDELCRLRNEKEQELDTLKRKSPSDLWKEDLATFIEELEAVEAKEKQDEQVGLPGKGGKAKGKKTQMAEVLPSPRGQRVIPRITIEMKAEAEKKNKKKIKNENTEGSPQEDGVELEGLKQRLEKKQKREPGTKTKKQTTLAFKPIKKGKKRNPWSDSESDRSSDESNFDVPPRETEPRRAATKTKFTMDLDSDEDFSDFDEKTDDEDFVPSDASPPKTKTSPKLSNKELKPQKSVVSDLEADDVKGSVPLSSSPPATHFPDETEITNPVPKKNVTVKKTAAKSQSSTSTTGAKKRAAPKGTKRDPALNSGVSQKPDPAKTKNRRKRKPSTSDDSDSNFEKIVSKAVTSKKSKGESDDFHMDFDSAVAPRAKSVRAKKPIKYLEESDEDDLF

`CCCCCCCCCCCCOc1ccc(OCCCCNCCCCNCCCNCCC)c2c1C(=O)c1ccccc1C2=O`: the IC50 in the experiment on HepG2 came out at 8.8 µM.

Turning to `COc1cccc(Nc2ccc([N+](=O)[O-])c3[nH]c4ccc(O)cc4c(=O)c23)c1`, the IC50 with HeLa, in the experiment on HCT-116 and with SW480 was over 20 µM in each case. In addition, the inhibition result in experiment [1] was “Active”.

Turning to `O=C1c2c(O)ccc(O)c2C(=O)c2c(NCCNCCO)ccc(NCCNCCO)c21` [MITOXANTRONE], the IC50 with K562 turned out to be 2.35 µM; with HepG2 it was 15.3 µM.

As for `O=c1c2cc(O)ccc2[nH]c2c([N+](=O)[O-])ccc(NCc3cccnc3)c12`, the IC50 with HeLa, in the experiment on HCT-116 and in the experiment on SW480 was over 20 µM each time. Also, in experiment [1], the inhibition entry was “inactive”.

Take `O=c1c2cc(O)ccc2[nH]c2c([N+](=O)[O-])ccc(Nc3ccc(CN4CCCCC4)cc3)c12`: the IC50 in the experiment with HeLa is 1.1 µM; with HCT-116 it was 2.5 µM; in the experiment with SW480, 2.3 µM. Also, the inhibition result in experiment [1] was “Active”.

Regarding `O=c1c2cc(O)ccc2[nH]c2c([N+](=O)[O-])ccc(Nc3ccc(O)cc3)c12`, the IC50 with HeLa, with HCT-116 and with SW480 was over 20 µM throughout. For the same compound, the inhibition result in experiment [1] was “Active”.

As for `CN1CCN(c2ccc(Nc3ccc([N+](=O)[O-])c4[nH]c5ccc(O)cc5c(=O)c34)cc2)CC1`, the figures for the IC50 in the experiment with HeLa, with HCT-116 and in the experiment on SW480 were 4.8 µM, 1.5 µM and 1.1 µM, respectively. The inhibition result in experiment [1] was “Active”.

On to `COc1ccc2[nH]c3c(N)ccc(Nc4ccc(-n5cncn5)cc4)c3c(=O)c2c1`, for which the figures for the IC50 with HeLa, in the experiment with HCT-116 and with SW480 were 16.8 µM, over 20 µM and 15.7 µM, respectively. In addition, the inhibition result in experiment [1] was “Active”.

With `COc1ccc2[nH]c3c([N+](=O)[O-])ccc(NCCCN4CCN(C)CC4)c3c(=O)c2c1`, the IC50 in the experiment with HeLa turned out to be 0.9 µM; in the experiment on HCT-116, 1 µM; in the experiment on SW480 it was 2 µM. Further, the inhibition result in experiment [1] was “Active”.

Consider `CCCCCCCCCCCOc1ccc(OCc2ccc(C(=O)N[C@@H](CCC(=O)O)C(=O)O)cc2)c2c1C(=O)c1ccccc1C2=O`, for which the IC50 in the experiment with K562 amounted to 0.77 µM.

Take `COc1ccc2[nH]c3c([N+](=O)[O-])ccc(Nc4ccc(O)cc4)c3c(=O)c2c1`: the IC50 with HeLa stood at 7.5 µM; in the experiment with HCT-116, 11.8 µM; in the experiment on SW480, 17.1 µM. For the same compound, the inhibition result in experiment [1] is “Active”.

Turning to `CCCCCCCCCCCOc1ccc(OCc2ccc(C(=O)N[C@@H](Cc3ccccc3)C(=O)O)cc2)c2c1C(=O)c1ccccc1C2=O`, the IC50 in the experiment on K562 was 1.82 µM.

With `O=c1c2cc(O)ccc2[nH]c2c([N+](=O)[O-])ccc(NCc3ccsc3)c12`, the IC50 with HeLa, in the experiment with HCT-116 and in the experiment with SW480 was over 20 µM each time. Moreover, the inhibition result in experiment [1] was “Active”.

Turning to `COc1cc([C@@H]2c3cc4c(cc3[C@@H](O[C@@H]3O[C@@H]5CO[C@@H](C)O[C@H]5[C@H](O)[C@H]3O)[C@H]3COC(=O)[C@H]23)OCO4)cc(OC)c1O` [ETOPOSIDE], the IC50 in the experiment with K562 was 10.8 µM; in the experiment with HCT-116 it was 1.7 µM; in the experiment with SW480, 0.6 µM. The inhibition result in experiment [1] is “Active”.

As a reminder, the IC50 is the point on the concentration scale where inhibition reaches its midpoint.
